Key:
Assay in all cases: Test B pre-/postemergence
Assay type in all cases: in vivo
Parameters in all cases: key: 0 is no effect; 10 is complete control
[1] = system: bedstraw (Galium aparine); conditions: for Bedstraw plant response rating: Preemergence
In short: (§1)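 Seeds were planted and sprayed preemergence, while plants at 2 to 18 cm (1- to 4-leaf stage) were sprayed postemergence at the same time, with test chemical in a non-phytotoxic solvent mixture containing surfactant. After twelve to sixteen days in a greenhouse, injury was rated visually against untreated controls on a 0–10 scale.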

[2] = system: blackgrass (Alopecurus myosuroides); conditions: for Blackgrass plant response rating: Preemergence
In short: as §1

[3] = system: broadleaf signalgrass (Brachiaria decumbens); conditions: for B. signalgrass plant response rating: Preemergence
In short: as §1

[4] = system: cocklebur (Xanthium strumarium); conditions: for Cocklebur plant response rating: Preemergence
In short: as §1

corn (Zea mays) = conditions: for Corn plant response rating: Preemergence
In short: as §1

[5] = system: crabgrass (Digitaria sanguinalis); conditions: for Crabgrass plant response rating: Preemergence
In short: as §1

[6] = system: giant foxtail (Setaria faberii)
In short: as §1

[7] = system: momingglory (Ipomoea hederacea)
In short: as §1

[8] = system: pigweed (Amaranthus retroflexus)
In short: as §1

[9] = system: purple nutsedge (Cyperus rotundus)
In short: as §1

[10] = system: sugar beet (Beta vulgaris)
In short: as §1

[11] = system: velvetleaf (Abutilon theophrasti)
In short: as §1

[12] = system: wheat (Triticum aestivum)
In short: as §1

wild oat (Avena fatua) = system: wild oat (Avena fatua)
In short: as §1

[13] = Rate 250 g/ha, Postemergence (so in the source)
[14] = Rate 250 g/ha, Postemergence as printed in head r139 (second section for compounds 26-50)

Cc1cnc(-n2cnc(C(F)(F)F)n2)nc1Cc1cccc(C(F)(F)F)c1 [Compound 43]
2: Blackgrass plant response rating ([2]; Rate 62 g/ha) | Cocklebur plant response rating ([4]; Rate 125 g/ha) | Plant response rating, Cocklebur [4, 13] | Nutsedge plant response rating ([9]; Rate 125 g/ha, Postemergence) | Wheat plant response rating ([12]; Rate 62 g/ha, Preemergence) | Plant response rating, Wheat ([12]; Rate 125 g/ha, Preemergence) | Plant response rating, Wheat [12, 13]
3: Plant response rating, Corn (corn (Zea mays); Rate 62 g/ha, Postemergence) | Plant response rating, Nutsedge ([9]; Rate 250 g/ha, Postemergence) | Wheat plant response rating ([12]; Rate 62 g/ha, Postemergence)
1: Cocklebur plant response rating ([4]; Rate 62 g/ha) | Corn plant response rating (corn (Zea mays); Rate 62 g/ha) | Corn plant response rating (corn (Zea mays); Rate 125 g/ha) | Plant response rating, Corn (corn (Zea mays); [13])
6: Plant response rating, Blackgrass ([2]; Rate 125 g/ha, Postemergence) | Plant response rating, B. signalgrass ([3]; Rate 250 g/ha, Postemergence) | Wild oats plant response rating (wild oat (Avena fatua); Rate 62 g/ha, Preemergence) | Plant response rating, Wild oats (wild oat (Avena fatua); Rate 250 g/ha, Postemergence)
4: Plant response rating, B. signalgrass ([3]; Rate 62 g/ha, Postemergence) | Plant response rating, B. signalgrass ([3]; Rate 125 g/ha, Postemergence) | Plant response rating, Corn (corn (Zea mays); Rate 125 g/ha, Postemergence) | Wheat plant response rating ([12]; Rate 125 g/ha, Postemergence) | Wild oats plant response rating (wild oat (Avena fatua); Rate 62 g/ha, Postemergence)
0: Plant response rating, Nutsedge ([9]; Rate 62 g/ha, Postemergence) | Nutsedge plant response rating ([9]; Rate 62 g/ha, Preemergence) | Nutsedge plant response rating ([9]; Rate 125 g/ha, Preemergence)
5: Plant response rating, Blackgrass ([2]; Rate 62 g/ha, Postemergence) | Blackgrass plant response rating ([2]; Rate 125 g/ha) | B. signalgrass plant response rating ([3]; Rate 62 g/ha) | Plant response rating, Corn (corn (Zea mays); Rate 250 g/ha, Postemergence) | Plant response rating, Wheat ([12]; Rate 250 g/ha, Postemergence) | Wild oats plant response rating (wild oat (Avena fatua); Rate 125 g/ha, Postemergence)
9: Plant response rating, Bedstraw ([1]; Rate 62 g/ha, Postemergence) | Bedstraw plant response rating ([1]; Rate 125 g/ha) | B. signalgrass plant response rating ([3]; Rate 125 g/ha) | Plant response rating, B. signalgrass [3, 14] | Plant response rating, Cocklebur ([4]; Rate 250 g/ha, Postemergence) | Giant foxtail plant response rating ([6]; Rate 125 g/ha, Postemergence) | Giant foxtail plant response rating ([6]; Rate 125 g/ha, Preemergence) | Plant response rating, Giant foxtail ([6]; Rate 250 g/ha, Postemergence) | Plant response rating, Giant foxtail [6, 13] | Plant response rating, Morningglory ([7]; Rate 62 g/ha, Postemergence) | Morningglory plant response rating ([7]; Rate 62 g/ha, Preemergence) | Morningglory plant response rating ([7]; Rate 125 g/ha, Postemergence) | Velvetleaf plant response rating ([11]; Rate 125 g/ha, Postemergence) | Plant response rating, Velvetleaf ([11]; Rate 250 g/ha, Postemergence) | Plant response rating, Wild oats (wild oat (Avena fatua); Rate 125 g/ha, Preemergence) | Plant response rating, Wild oats (wild oat (Avena fatua); [13])
8: Bedstraw plant response rating ([1]; Rate 62 g/ha) | Plant response rating, Blackgrass ([2]; Rate 250 g/ha, Postemergence) | Plant response rating, Blackgrass [2, 13] | Crabgrass plant response rating ([5]; Rate 62 g/ha) | Plant response rating, Crabgrass ([5]; Rate 125 g/ha, Postemergence) | Plant response rating, Giant foxtail ([6]; Rate 62 g/ha, Postemergence) | Plant response rating, Velvetleaf ([11]; Rate 62 g/ha, Postemergence)
7: Plant response rating, Cocklebur ([4]; Rate 125 g/ha, Postemergence) | Plant response rating, Crabgrass ([5]; Rate 62 g/ha, Postemergence) | Giant foxtail plant response rating ([6]; Rate 62 g/ha, Preemergence)
10: Plant response rating, Bedstraw ([1]; Rate 125 g/ha, Postemergence) | Plant response rating, Bedstraw ([1]; Rate 250 g/ha, Postemergence) | Plant response rating, Bedstraw [1, 13] | Crabgrass plant response rating ([5]; Rate 125 g/ha) | Plant response rating, Crabgrass ([5]; Rate 250 g/ha, Postemergence) | Plant response rating, Crabgrass [5, 13] | Morningglory plant response rating ([7]; Rate 125 g/ha, Preemergence) | Plant response rating, Morningglory ([7]; Rate 250 g/ha, Postemergence) | Plant response rating, Morningglory [7, 13] | Plant response rating, Redroot pigweed ([8]; Rate 62 g/ha, Postemergence) | Redroot pigweed plant response rating ([8]; Rate 62 g/ha, Preemergence) | Redroot pigweed plant response rating ([8]; Rate 125 g/ha, Postemergence) | Redroot pigweed plant response rating ([8]; Rate 125 g/ha, Preemergence) | Plant response rating, Redroot pigweed ([8]; Rate 250 g/ha, Postemergence) | Plant response rating, Redroot pigweed [8, 13] | Plant response rating, Sugarbeets ([10]; Rate 62 g/ha, Postemergence) | Sugarbeets plant response rating ([10]; Rate 62 g/ha, Preemergence) | Sugarbeets plant response rating ([10]; Rate 125 g/ha, Postemergence) | Plant response rating, Sugarbeets ([10]; Rate 125 g/ha, Preemergence) | Plant response rating, Sugarbeets ([10]; Rate 250 g/ha, Postemergence) | Plant response rating, Sugarbeets [10, 13] | Velvetleaf plant response rating ([11]; Rate 62 g/ha, Preemergence) | Plant response rating, Velvetleaf ([11]; Rate 125 g/ha, Preemergence) | Plant response rating, Velvetleaf [11, 13]

Cc1cnc(-n2cnc(C(F)(F)F)c2)nc1Cc1cccc(C(F)(F)F)c1 [Compound 44]
3: Plant response rating, B. signalgrass ([3]; Rate 62 g/ha, Postemergence) | Plant response rating, Corn (corn (Zea mays); Rate 62 g/ha, Postemergence) | Plant response rating, Corn (corn (Zea mays); Rate 125 g/ha, Postemergence) | Plant response rating, Corn (corn (Zea mays); Rate 250 g/ha, Postemergence) | Plant response rating, Crabgrass ([5]; Rate 62 g/ha, Postemergence) | Plant response rating, Nutsedge ([9]; Rate 250 g/ha, Postemergence) | Wheat plant response rating ([12]; Rate 62 g/ha, Postemergence) | Wheat plant response rating ([12]; Rate 125 g/ha, Postemergence) | Plant response rating, Wheat ([12]; Rate 250 g/ha, Postemergence) | Plant response rating, Wheat [12, 13]
8: Plant response rating, Bedstraw ([1]; Rate 62 g/ha, Postemergence) | B. signalgrass plant response rating ([3]; Rate 125 g/ha) | Plant response rating, B. signalgrass [3, 14] | Plant response rating, Cocklebur ([4]; Rate 62 g/ha, Postemergence) | Plant response rating, Cocklebur [4, 13] | Morningglory plant response rating ([7]; Rate 62 g/ha, Preemergence) | Plant response rating, Velvetleaf ([11]; Rate 62 g/ha, Postemergence) | Velvetleaf plant response rating ([11]; Rate 62 g/ha, Preemergence) | Velvetleaf plant response rating ([11]; Rate 125 g/ha, Postemergence)
1: Corn plant response rating (corn (Zea mays); Rate 125 g/ha) | Plant response rating, Corn (corn (Zea mays); [13]) | Plant response rating, Nutsedge ([9]; Rate 62 g/ha, Postemergence) | Plant response rating, Wheat ([12]; Rate 125 g/ha, Preemergence)
6: Blackgrass plant response rating ([2]; Rate 125 g/ha) | B. signalgrass plant response rating ([3]; Rate 62 g/ha) | Wild oats plant response rating (wild oat (Avena fatua); Rate 62 g/ha, Preemergence)
4: Bedstraw plant response rating ([1]; Rate 62 g/ha) | Plant response rating, Blackgrass ([2]; Rate 62 g/ha, Postemergence) | Plant response rating, B. signalgrass ([3]; Rate 125 g/ha, Postemergence) | Crabgrass plant response rating ([5]; Rate 62 g/ha) | Plant response rating, Crabgrass ([5]; Rate 125 g/ha, Postemergence) | Crabgrass plant response rating ([5]; Rate 125 g/ha) | Giant foxtail plant response rating ([6]; Rate 62 g/ha, Preemergence) | Wild oats plant response rating (wild oat (Avena fatua); Rate 62 g/ha, Postemergence) | Wild oats plant response rating (wild oat (Avena fatua); Rate 125 g/ha, Postemergence)
7: Plant response rating, Blackgrass ([2]; Rate 250 g/ha, Postemergence) | Plant response rating, Crabgrass ([5]; Rate 250 g/ha, Postemergence) | Giant foxtail plant response rating ([6]; Rate 125 g/ha, Postemergence) | Redroot pigweed plant response rating ([8]; Rate 62 g/ha, Preemergence) | Plant response rating, Wild oats (wild oat (Avena fatua); Rate 125 g/ha, Preemergence)
10: Plant response rating, Bedstraw [1, 13] | Plant response rating, Morningglory ([7]; Rate 62 g/ha, Postemergence) | Plant response rating, Morningglory ([7]; Rate 250 g/ha, Postemergence) | Plant response rating, Morningglory [7, 13] | Redroot pigweed plant response rating ([8]; Rate 125 g/ha, Postemergence) | Plant response rating, Redroot pigweed ([8]; Rate 250 g/ha, Postemergence) | Plant response rating, Redroot pigweed [8, 13] | Plant response rating, Sugarbeets ([10]; Rate 62 g/ha, Postemergence) | Sugarbeets plant response rating ([10]; Rate 125 g/ha, Postemergence) | Plant response rating, Sugarbeets ([10]; Rate 125 g/ha, Preemergence) | Plant response rating, Sugarbeets ([10]; Rate 250 g/ha, Postemergence) | Plant response rating, Sugarbeets [10, 13] | Plant response rating, Velvetleaf ([11]; Rate 125 g/ha, Preemergence) | Plant response rating, Velvetleaf [11, 13]
5: Bedstraw plant response rating ([1]; Rate 125 g/ha) | Blackgrass plant response rating ([2]; Rate 62 g/ha) | Plant response rating, Blackgrass ([2]; Rate 125 g/ha, Postemergence) | Plant response rating, B. signalgrass ([3]; Rate 250 g/ha, Postemergence) | Cocklebur plant response rating ([4]; Rate 125 g/ha) | Giant foxtail plant response rating ([6]; Rate 125 g/ha, Preemergence) | Plant response rating, Wild oats (wild oat (Avena fatua); Rate 250 g/ha, Postemergence)
2: Cocklebur plant response rating ([4]; Rate 62 g/ha) | Plant response rating, Giant foxtail ([6]; Rate 62 g/ha, Postemergence) | Nutsedge plant response rating ([9]; Rate 62 g/ha, Preemergence) | Nutsedge plant response rating ([9]; Rate 125 g/ha, Postemergence)
9: Plant response rating, Bedstraw ([1]; Rate 125 g/ha, Postemergence) | Plant response rating, Bedstraw ([1]; Rate 250 g/ha, Postemergence) | Plant response rating, Blackgrass [2, 13] | Plant response rating, Cocklebur ([4]; Rate 125 g/ha, Postemergence) | Plant response rating, Cocklebur ([4]; Rate 250 g/ha, Postemergence) | Plant response rating, Crabgrass [5, 13] | Plant response rating, Giant foxtail ([6]; Rate 250 g/ha, Postemergence) | Plant response rating, Giant foxtail [6, 13] | Morningglory plant response rating ([7]; Rate 125 g/ha, Preemergence) | Plant response rating, Redroot pigweed ([8]; Rate 62 g/ha, Postemergence) | Redroot pigweed plant response rating ([8]; Rate 125 g/ha, Preemergence) | Sugarbeets plant response rating ([10]; Rate 62 g/ha, Preemergence) | Plant response rating, Velvetleaf ([11]; Rate 250 g/ha, Postemergence) | Plant response rating, Wild oats (wild oat (Avena fatua); [13])
0: Corn plant response rating (corn (Zea mays); Rate 62 g/ha) | Wheat plant response rating ([12]; Rate 62 g/ha, Preemergence)
